Results as given in patent publication US20230173059A1, “TOLL-LIKE RECEPTOR (TLR) AGONIST NANOPARTICLES AND USES THEREOF” (The Board of Trustees of the Leland Stanford Junior …, priority 2020, published 2023).
Where “and” joins values, the source holds several entries; their conditions need not be identical. Equal entries are not always repeated.

Assays:
SARS-CoV-2 spike protein = details: in vivo, sc
TLR9 = target: T1, TLR9 (Mus musculus, UniProt Q9EQU3); assay: In vitro Raw-Blue reporter assay (CpG); assay type: cell-based; details: 100,000 Raw-Blue cells, 21 h, CpG-C 3.1-29 μg/mL, absorbance 655 nm
T1 construct: host or cells: Raw-Blue (NF-kB-SEAP) mouse macrophage reporter cells
T1 sequence (Q9EQU3 26-1032): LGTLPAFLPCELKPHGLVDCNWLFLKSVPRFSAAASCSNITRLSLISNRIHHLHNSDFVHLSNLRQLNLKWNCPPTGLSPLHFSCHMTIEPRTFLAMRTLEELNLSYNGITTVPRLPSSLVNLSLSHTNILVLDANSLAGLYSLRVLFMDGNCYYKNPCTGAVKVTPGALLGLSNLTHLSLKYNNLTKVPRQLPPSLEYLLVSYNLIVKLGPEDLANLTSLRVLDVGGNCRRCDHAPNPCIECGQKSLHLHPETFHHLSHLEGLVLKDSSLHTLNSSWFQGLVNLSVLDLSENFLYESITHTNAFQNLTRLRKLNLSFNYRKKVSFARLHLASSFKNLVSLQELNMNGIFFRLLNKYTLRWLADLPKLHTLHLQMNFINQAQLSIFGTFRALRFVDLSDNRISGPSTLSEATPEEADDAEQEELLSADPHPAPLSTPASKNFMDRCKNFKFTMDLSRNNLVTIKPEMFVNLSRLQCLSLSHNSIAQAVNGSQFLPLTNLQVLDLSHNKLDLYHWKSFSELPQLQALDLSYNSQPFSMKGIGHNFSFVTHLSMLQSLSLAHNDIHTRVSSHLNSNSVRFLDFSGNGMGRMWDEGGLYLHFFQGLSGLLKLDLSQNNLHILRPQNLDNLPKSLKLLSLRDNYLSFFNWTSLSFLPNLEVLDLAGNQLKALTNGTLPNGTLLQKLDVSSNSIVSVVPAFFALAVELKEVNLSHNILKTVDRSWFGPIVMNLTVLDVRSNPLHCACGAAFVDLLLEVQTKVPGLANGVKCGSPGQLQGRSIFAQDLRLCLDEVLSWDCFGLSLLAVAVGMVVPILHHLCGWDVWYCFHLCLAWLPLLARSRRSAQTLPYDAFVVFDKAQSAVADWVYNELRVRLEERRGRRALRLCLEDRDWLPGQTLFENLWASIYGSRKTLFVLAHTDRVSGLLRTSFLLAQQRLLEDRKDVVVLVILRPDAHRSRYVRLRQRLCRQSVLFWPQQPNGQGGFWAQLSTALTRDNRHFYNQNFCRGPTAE
Description: In vitro Raw-Blue reporter assay. The Raw-Blue (NF-kB-SEAP) reporter cell line (Invivogen, raw-sp) was used to evaluate the valency effect of TLR9 agonist conjugated to PEG-PLA NPs. The cells were cultured at 37° C. with 5% CO2 in DMEM supplemented with L-glutamine (2 mM), D-glucose (4.5 g/L), 10% HI-FBS, and penicillin (100 U/mL)/streptonmcin (100 μg). Every other passage, zeocin (100 μg/mL) was added to the culture medium. Serial dilutions of soluble CpG-B and CpG-C and of the different CpG-B and CpG-C NPs formulations were added to a 96-well tissue culture treated plate to achieve final concentrations between 30 and 3.1 μg/mL of TLR9 agonist. Non-conjugated PEG-PLA NPs were used as a negative control. […] Manufacturer instructions were followed for SEAP quantification, and absorbance levels detected at 655 nm after 3 h incubation with QUANTI-Blue Solution (Invivogen). […]
In these assays, Raw-Blue cells were incubated for 21 h with either the free form, or the NPs tethered form (10%, 20%, 30%, 50%) of CpG-C at a range of CpG concentrations (3.1-29 μg/mL) in order to generate concentration dependent activation curves (FIG. 38B). […] To ensure a correct and consistent dosing of CpG NPs throughout different experiments, we constructed a standard curve for both classes of CpG-NPs (FIGS. 40A, 40B) by measuring the absorbance of different concentration of CpG at 280 nm. […]

[1] = Cargo and polymer diffusivity (FRAP, Stokes-Einstein, MSDM); assay type: physicochemical; details: for Diffusivity in 1:5 gel / Diffusivity in 2:10 gel: FRAP; for Diffusivity in PBS: calculated with Stokes-Einstein from RH
Excerpt: To characterize the dynamics of vaccine exposure expected from the vaccine-loaded gels, we assessed the diffusivities of both vaccine cargo in each of the two gel formulations of interest using fluorescence recovery after photobleaching (FRAP) experiments (FIG. 9F. FIG. 16). The PNP gels are unique compared to traditional covalently cross-linked gels as their bonds are dynamic and continuously rearrange^28. This feature results in self-diffusion of the polymer network over time within the intact hydrogel^40,41. OVA's hydrodynamic radius (RH) in PBS is reported in the literature to be 3.2 nm^42, corresponding to a diffusivity value, D, of 76.6 μm^2/s. Using multi-angle light scattering (MALS) we measured Poly(I:C)'s hydrodynamic radius to be much larger, with an RH of 34.2 nm, corresponding to a D value of 7.2 μm^2/s. This difference in hydrodynamic size results in OVA having more than a 10-fold greater diffusivity than Poly(I:C) in PBS (FIG. 9G) and a 100-fold difference in a typical covalently cross-linked hydrogel (FIG. 17). […] The measured diffusivities for all experiments can be found in Table 6.
FRAP Analysis: Alexa Fluor 647 conjugated OVA (Thermo Fisher Scientific), rhodamine conjugated Poly(I:C) (Invivogen), and rhodamine conjugated HPMC-C12 were used to visualize the diffusion of the cargo and gel. Samples were photobleached with a 50 μm diameter for the region of interest (ROI). Different tests (n=5) were made for 3 different samples from the same batch at different locations of the sample. A spot was bleached with a pixel dwell time of 177.32 μs. 500 post-bleach frames were recorded at 1 frame/s to form the recovery exponential curve. The diffusion coefficient was calculated as^52:
Where the constant γD=τ1/2τD, with τ1/2 being the half-time of the recovery. τD the characteristic diffusion time, both yielded by the ZEN software, and ω the radius of the bleached ROI (25 μm).
The diffusivity of cargo in PBS was calculated using the Stokes-Einstein Law Equation for diffusion^53 where kB is Boltzmann's constant, T is temperature in Kelvin, η is solvent viscosity, and R is solute hydrodynamic radius
The diffusivity of cargo in a model covalent PEG gel was calculated using the Multiscale Diffusion Model (MSDM) assuming 25° C., 5% volume fraction, and 35 nm mesh size^54.
FRAP Analysis: Alexa Fluor 647 conjugated OVA (Thermo Fisher Scientific), rhodamine conjugated Poly(I:C) (Invivogen), and rhodamine conjugated HPMC-C12 were used to visualize the diffusion of the cargo and gel. The samples were placed in a sterile 0.18 mm thick glass bottom dish (Ibidi). An Inverted Zeiss LSM 780 Laser Scanning Confocal Microscope (Germany) using a Plan-Apochromat 20×/0.8 M27 objective lens was used for FRAP measurements. To excite the fluorescent Alexa Fluor 647, a 5 mW 633 nm He—Ne laser was employed at 2%, and the emitted fluorescence was detected by Alexa Fluor 647 specific band pass filter (638-756 nm). To excite the fluorescent rhodamine, a 20 mW 561 nm diode pumped solid state laser was used at 2%, and the emitted fluorescence was detected by rhodamine specific band pass filter (415-638 nm). We used pixel dwell time 2.55 μs which took 390.98 ms to finish every scan. Samples were photobleached with a 405 nm diode laser, plus the 633 nm laser in the case of the Alexa Fluor, and a 514 nm argon laser and the 561 nm laser in the case of the rhodamine. All lasers were set al 100% intensity for the bleaching, with a 20-40 μm diameter for the region of interest (ROI). To avoid any extra noise, the high voltage was limited to be 700 V. Different tests (n=5) were made for 3 different samples from the same batch at different locations of the sample. For each test, 10 control pre-bleach images were captured at 1 frame/s. A spot was bleached with a pixel dwell time of 177.32 μs. 500 post-bleach frames were recorded at 1 frame/s to form the recovery exponential curve. The pixel size was set to be 1.66 μm. The diffusion coefficient was calculated as^62: […]

[2] = reported in the literature; cited from earlier work

Row | Molecule | anti-spike total IgG endpoint titers (SARS-CoV-2 spike protein) | log EC50 (TLR9) | Diffusivity in 1:5 gel [1] | Diffusivity in 2:10 gel [1] | Diffusivity in PBS [1] | hydrodynamic radius (RH) ([1]; multi-angle light scattering (MALS)) | hydrodynamic radius (RH) in PBS [2]
1 | CpG-B 1826 [soluble CpG-B] | stronger response than the CpG-B NP |  |  |  |  |  | 
2 | CpG-C 2395 (DNA TCGTCGTTTTCGGCGCGCGCCG; chemistry not given here) [free CpG-C] |  | 1.15 log10(μg/mL) |  |  |  |  | 
3 | Poly(I:C) |  |  | 1.7 ± 0.3 μm^2/s | 2.4 ± 0.1 μm^2/s | 7.2 μm^2/s | 34.2 nm | 
4 | ovalbumin (protein, UniProt P01012 2-386, looked up, model antigen protein, MW=43 kDa) Ovalbumin: GSIGAASMEFCFDVFKELKVHHANENIFYCPIAIMSALAMVYLGAKDSTRTQINKVVRFDKLPGFGDSIEAQCGTSVNVHSSLRDILNQITKPNDVYSFSLASRLYAEERYPILPEYLQCVKELYRGGLEPINFQTAADQARELINSWVESQTNGIIRNVLQPSSVDSQTAMVLVNAIVFKGLWEKAFKDEDTQAMPFRVTEQESKPVQMMYQIGLFRVASMASEKMKILELPFASGTMSMLVLLPDEVSGLEQLESIINFEKLTEWTSSNVMEERKIKVYLPRMKMEEKYNLTSVLMAMGITDVFSSSANLSGISSAESLKISQAVHAAHAEINEAGREVVGSAEAGVDAASVSEEFRADHPFLFCIKHIATNAVLFFGRCVSP |  |  | 5.76 μm^2/s and 6 ± 1 μm^2/s | 3.2 μm^2/s and 3.2 ± 0.6 μm^2/s | 76.6 μm^2/s |  | 3.2 nm
